Columns and labels:
[1] = system: DRG neurons; test: Calcium imaging of cultured DRG neurons; assay type: cell-based, mouse; settings: for percentage of DRG neurons responding, WT vs MrgprA1GFP/GFP mice: comparison of WT and MrgprA1GFP/GFP mice
Protocol: Calcium Imaging of Cultured Dorsal Root Ganglia (DRG) Neurons
DRG neurons were plated on poly-D-lysine/laminin-coated coverslips and cultured for 24 hours. […] Briefly, neurons were loaded with Fura 2-acetomethoxy ester (Molecular Probes) for 30 min in dark at room temperature. After washing, neurons were imaged at 340/380 nm excitation to detect intracellular free calcium. All tests were performed with an experimenter blinded to the genotype.

[2] = system: small-diameter primary sensory neurons (DRG neurons); test: Whole-cell recordings of cultured DRG neurons (evoked action potentials); assay type: cell-based, mouse
Protocol: Whole-Cell Voltage-Clamp Recordings of Cultured DRG Neurons
Dissociated DRG neurons were plated on coverslips and cultured for 2-7 hours. For clamp recording, coverslips were perfused with extracellular solution (ECS) consisting of (in mM): NaCl 140, KCl 4, CaCl2 2, MgCl2 2, HEPES 10, Glucose 5, with pH adjusted to 7.38 using NaOH. Neurons with cell body diameters between 22 and 25 μm were recorded in the whole-cell voltage-clamp configuration with electrodes (pipette solution in mM: KCl 135, MgATP 3, Na2ATP 0.5, CaCl2 1.1, EGTA 2, Glucose 5, pH adjusted to 7.38) using an Axon 700B amplifier and the pCLAMP 9.2 software package (Axon Instruments). Electrodes were pulled (Narishige, Model pp-830) from borosilicate glass (WPI, Inc), and after filling they had resistances of 2-4 MΩ. Neurons were perfused with […] FMRFamide for 30 seconds and washed for 3 minutes. Action potentials were elicited with prolonged injections (500 ms) of a depolarizing current (200 pA) before and after FMRFamide treatment. All experiments were performed at room temperature with an experimenter blinded to the genotype.

[3] = adult mutant (Mrgpr-clusterΔ−/−) DRG neurons

Substance	responses in DRG neurons [1, 3]	percentage of DRG neurons responding, WT vs MrgprA1GFP/GFP mice [1]	responses in DRG neurons ([1]; newborn Mrgpr-clusterΔ−/− mice)	firing rate ([2]; Mrgpr-deficient neurons)	number of action potentials evoked by injection of depolarizing current ([2]; WT DRG neurons, current-clamp)	cells with sensitizing effect / cells recorded ([2]; WT adult DRG neurons, cell body diameter 22 to 25 μm)	average number of action potentials after treatment ([2]; WT neurons, n=10, 500 ms, 200 pA depolarizing current, before treatment 3.6±1.6)	cells with sensitizing effect / cells recorded ([2]; neurons from Mrgpr-clusterΔ−/− mice)
NPFF	no responses	did not differ significantly	few or no responses					
FMRFamide	no responses	did not differ significantly	few or no responses	did not show an increase in firing rate	significant increase	10 of 23	7.7±1.9	1 of 20
